Blank lines part the entries; values can stand above or below the compound they belong to.
Tests used:
beta-3 adrenoceptor [1] = target: T1, beta-3 adrenoceptor (Rattus norvegicus, UniProt P26255); assay: EC90 determination: inhibition of EFS-induced contraction in rat isolated bladder (pilot CCRC); assay type: cell-based; details: pilot concentration response curves, read-out: EC90 concentration to inhibit EFS-induced contraction
T1 construct: The bladder longitudinal smooth muscle, with the urothelium still attached were mounted in 25 mL organ baths; from tissue; host or cells: rat urinary bladder smooth muscle strips (Male CD rats)
Method: Macroscopically normal bladders obtained from Male CD rats (220-250 g) were used. […] Each bladder was cleaned free of surrounding connective tissue and halved longitudinally. The bladder longitudinal smooth muscle, with the urothelium still attached were mounted in 25 mL organ baths containing physiological saline solution (PSS) (composition: 119.0 mM NaCl, 4.7 mM KCl, 1.2 mM MgSO4, 24.9 mM NaHCO3, 1.2 mM KH2PO4, 2.5 mM CaCl2 and 11.1 mM glucose) supplemented with 1 μM prazosin (α1-adrenoceptor antagonist) and 30 nM ICI118551 (β2-adrenoceptor antagonist), aerated with 95% O2/5% CO2 gas mix, warmed and maintained at approximately 37° C. throughout the experiment. Changes in force production were recorded using transducers. […]
In initial experiments the parameters for the EFS were assessed by performing a frequency curve to determine a frequency that would give a response that was approximately 80% of the response seen to 80 mM KCl. Optimal EFS parameters were determined to be: 30 Volts, square pulse of 0.1 ms, train of 4 seconds every 120 seconds, 15 Hz. […]
Pilot studies to determine EC90 concentrations of the test compounds were performed. […] From the data obtained in these experiments, EC90 concentrations of the test compounds were determined for use in subsequent experiments. […]

beta-3 adrenoceptor [2] = target: T1, beta-3 adrenoceptor; assay: Receptor desensitization/washout: CCRC after incubation with EC90 concentration and PSS washout, rat bladder strips; assay type: cell-based
Method: Macroscopically normal bladders obtained from Male CD rats (220-250 g) were used. […] Each bladder was cleaned free of surrounding connective tissue and halved longitudinally. The bladder longitudinal smooth muscle, with the urothelium still attached were mounted in 25 mL organ baths containing physiological saline solution (PSS) (composition: 119.0 mM NaCl, 4.7 mM KCl, 1.2 mM MgSO4, 24.9 mM NaHCO3, 1.2 mM KH2PO4, 2.5 mM CaCl2 and 11.1 mM glucose) supplemented with 1 μM prazosin (α1-adrenoceptor antagonist) and 30 nM ICI118551 (β2-adrenoceptor antagonist), aerated with 95% O2/5% CO2 gas mix, warmed and maintained at approximately 37° C. throughout the experiment. Changes in force production were recorded using transducers. After mounting, the bladder halves were allowed to equilibrate for at least 30 min before they were set to a stable tension of approximately 1.0 g. The tissue was then allowed to equilibrate over at least a 60 min period with washes every 15 min.
In initial experiments the parameters for the EFS were assessed by performing a frequency curve to determine a frequency that would give a response that was approximately 80% of the response seen to 80 mM KCl. Optimal EFS parameters were determined to be: 30 Volts, square pulse of 0.1 ms, train of 4 seconds every 120 seconds, 15 Hz. This frequency was then used to stimulate the tissue for all subsequent experiments. The viability of bladder strips was tested by stimulating the tissue with EFS for minimum of ten minutes.
Following compound incubation, the tissues were washed with PSS for a period of 1, 3 or 6 hr, with washes approximately every 15 min, to remove the drug. At the end of the final wash period the tissues were stimulated with EFS, and left to equilibrate for at least 30 min. A CCRC was then performed in each tissue. Tissue responses were calculated as the mean (SEM) and expressed as percentage of EFS induced tone.
Tissues were incubated with the EC90 concentration of the test compounds for one hr followed by one hr, three hr or six hr of washing with PSS. […] This EFS-induced potentiation of bladder contraction from baseline was not observed with solabegron. […] Effect of the washout period following a […] incubation with test compound.
In the next series of experiments, tissues were incubated with the EC90 concentration of the test compounds for three hr followed by either one hr, three hr or six hr of washing with PSS.

beta-3 adrenoceptor [3] = target: T2, beta-3 adrenoceptor (Homo sapiens, UniProt P13945); assay: Desensitization and resensitization in isolated human bladder tissue strips (EFS responses); assay type: cell-based; set-up: dose or concentration left out as unconfirmed
T2 construct: from tissue; host or cells: human urinary bladder muscle strips
Method: Beta-3 adrenoceptor desensitization and resensitization were examined in the human bladder. Similar to the protocol used in the rat bladder, isolated human bladder tissue strips were studied for EFS responses. Optimal EFS parameters were determined to be: 30 volts, square pulse of 0.1 ms, train of 5 seconds every 60 seconds, 8-10 Hz. […] Following compound incubation, the tissues were washed with PSS for a period of 1 or 3 hr, with washes approximately every 15 min, to remove the drug. At the end of the final wash period the tissues were stimulated with EFS, and left to equilibrate for at least 30 min. A concentration-response curve was then performed in each tissue.

Solubility of solabegron = assay type: physicochemical
overactive bladder = details: women with moderate to severe OAB; cited from earlier work
[4] = three hr incubation with EC90, one hr of washing

T1 sequence (P26255 whole entry): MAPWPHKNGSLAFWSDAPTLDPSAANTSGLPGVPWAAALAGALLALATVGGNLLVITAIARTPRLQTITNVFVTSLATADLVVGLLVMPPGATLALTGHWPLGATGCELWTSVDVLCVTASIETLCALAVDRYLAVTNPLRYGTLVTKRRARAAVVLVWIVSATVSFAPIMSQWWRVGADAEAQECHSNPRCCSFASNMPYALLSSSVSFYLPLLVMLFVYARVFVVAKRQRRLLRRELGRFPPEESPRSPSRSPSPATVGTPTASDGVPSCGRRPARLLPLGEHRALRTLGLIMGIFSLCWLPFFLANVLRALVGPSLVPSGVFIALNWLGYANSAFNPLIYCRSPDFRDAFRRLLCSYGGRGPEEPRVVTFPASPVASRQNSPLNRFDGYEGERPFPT
T2 sequence (P13945 whole entry): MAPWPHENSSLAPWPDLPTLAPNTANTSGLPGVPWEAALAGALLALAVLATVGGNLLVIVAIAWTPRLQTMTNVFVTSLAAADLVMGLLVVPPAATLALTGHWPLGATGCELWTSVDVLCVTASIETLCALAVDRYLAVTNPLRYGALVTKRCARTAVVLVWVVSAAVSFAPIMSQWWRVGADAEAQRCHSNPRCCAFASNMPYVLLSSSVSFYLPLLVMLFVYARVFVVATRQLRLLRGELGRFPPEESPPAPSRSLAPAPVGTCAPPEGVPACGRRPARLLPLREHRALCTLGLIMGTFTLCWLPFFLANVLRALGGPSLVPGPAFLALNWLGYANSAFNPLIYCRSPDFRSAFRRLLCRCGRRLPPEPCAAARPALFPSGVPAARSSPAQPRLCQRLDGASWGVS

SMILES: C[C@H](Cc1ccc2c(c1)OC(C(=O)[O-])(C(=O)[O-])O2)NC[C@H](O)c1cccc(Cl)c1.[Na+].[Na+] [CL-316,243, reference compound]
- EC90 (beta-3 adrenoceptor [1]): 42 nM
- response (reduction of EFS-induced tone) after pre-exposure (beta-3 adrenoceptor [2]; [4]): significantly attenuated

- solubility (Solubility of solabegron): pH dependent and low solubility
SMILES: O=C(O)c1cccc(-c2cccc(NCCNC[C@H](O)c3cccc(Cl)c3)c2)c1 [Solabegron, 3′-[(2-{[(2R)-2-(3-chlorophenyl)-2-hydroxyethyl]amino}ethyl)amino]biphenyl-3-carboxylic acid]
- response (reduction of EFS-induced tone) after pre-exposure (beta-3 adrenoceptor [2]; one hr incubation with EC90, one hr of washing with PSS, vs vehicle incubation): significantly attenuated
- response (reduction of EFS-induced tone) after pre-exposure (beta-3 adrenoceptor [2]; one hr incubation with EC90, three hr of washing, responses to higher concentrations): significantly attenuated
- response (reduction of EFS-induced tone) after pre-exposure (beta-3 adrenoceptor [2]; [4]): significantly attenuated
- response (reduction of EFS-induced tone) after pre-exposure (beta-3 adrenoceptor [2]; three hr incubation with EC90, three hr of washing, responses to the highest concentrations): significantly attenuated
- inhibition of EFS-induced bladder smooth muscle contraction (beta-3 adrenoceptor [3]): concentration-dependent inhibition
- safety and tolerability, adverse events as compared to placebo (overactive bladder): safe, well-tolerated, and does not demonstrate significant differences in adverse events as compared to placebo
- symptoms of overactive bladder (overactive bladder): significantly reduce the symptoms of overactive bladder
